Where two headings read alike, the source gives them in different places.
Experiments:
[1] = system: HL-60 cells; experiment: cells; assay type: cell-based, human
[2] = system: MCF-7 cells; experiment: cells; assay type: cell-based; settings: read-out: IC50 MCF-7
[3] = system: SGC7901 cells; experiment: cells; assay type: cell-based; settings: read-out: IC50 SGC7901
[4] = system: GES-1 cells; experiment: cells; assay type: cell-based; settings: read-out: IC50 GES-1
[5] = system: HEK293 cells; experiment: cells; assay type: cell-based
[6] = system: NIH3T3 cells; experiment: cells; assay type: cell-based
[7] = system: HL-60 cells; assay type: cell-based, human; settings: for apoptosis rate (FITC+/PI− and FITC+/PI+): control 2.9%
[8] = system: HL-60 cells; experiment: Hoechst 33342 staining, morphology; assay type: cell-based, human; settings: 2a (1 μM and 2 μM) or 2b (0.75 μM and 1.5 μM), 24 h
Method: HL-60 cells treated with 2a (1 μM and 2 μM) or 2b (0.75 μM and 1.5 μM) were plated in 12-well plates, and the medium was removed after 24 h, followed by the addition of 5 μg.mL^−1 Hoechst 33342. After being incubated for 30 min in dark at 37 °C, the samples were visualized and photographed using a C1-si Laser Scanning Confocal Microscope (Nikon, Japan)[27].

[9] = system: HL-60 cells; experiment: Intracellular ROS level (DCFH-DA); assay type: cell-based, human; settings: 2 μM 2a or 1.5 μM 2b, 24 h
Method: HL-60 cells treated with 2 μM 2a or 1.5 μM 2b were plated in 12-well plates. After 24 h, each sample of cells was collected and washed once with PBS. The cells were incubated with 300 μL FBS-free medium containing DCFH-DA (1 μM) for 30 min in dark at 37 °C. Data were obtained and analyzed using a C6 flow cytometer (BD Biosciences, USA)[27].
In laser scanning confocal experiment, the medium was removed after 24 h incubation. 1 mL FBS-free medium with DCFH-DA (10 μM) was added to each sample. Then continue the incubation for 30 min in dark at 37 °C. The samples were visualized and photographed using a C1-si Laser Scanning Confocal Microscope (Nikon, Japan).
(§1) In protective trial, the cells were pre-incubated with the protective agents for 4 h and other operations were in accordance with the above.

[10] = system: HL-60 cells; experiment: Total glutathione and GSH/GSSG level; assay type: cell-based, human; settings: 2 μM 2a or 1.5 μM 2b; for ratio of GSH/GSSG: with or without 0.075 mM LA
Method: The cells were cultured in a 6-well plate and treated with 2 μM 2a or 1.5 μM 2b. After 24 h, the cells were collected and washed twice with PBS. The protein content was quantified by the use of Bradford procedure. Then each sample was treated according to the manufacturer’s instructions (beyotime, Shanghai, China). The absorbance was measured every 5 minutes at 405 nm with microplate reader.
as §1

[11] = system: HL-60 cells; experiment: Mitochondrial membrane potential (JC-1 or Rh123, flow cytometry); assay type: cell-based, human
Method: HL-60 cells treated with 2a (1.5 μM and 3 μM) or 2b (1 μM and 2 μM) were plated in 12-well plates. After 24 h, cells were collected and washed once with PBS. Then, the cells were handled with JC-1 according to the manufacturer’s instructions (Multi Sciences BiotechCo., Ltd, Hangzhou, China) or Rh123. Data were obtained and analyzed using a C6 flow cytometer (BD Biosciences, USA).
as §1

[12] = system: HL-60 cells; experiment: Released cytochrome c level (ELISA); assay type: cell-based, human; settings: 3 μM 2a or 2 μM 2b, 24 h
Method: HL-60 cells with 3 μM 2a or 2 μM 2b were incubated in a 12-well plate for 24 h. The cells were sacrificed and dealt with ELISA Kit (Meilian BiotechCo., Ltd, Shanghai, China) according to the manufacturer’s instructions. The absorbance was measured at 450 nm with microplate reader.
as §1

[13] = system: Caspase-3 in HL-60 cells; experiment: Caspase-3 activity (colorimetric, cell extracts); assay type: cell-based, human
Method: HL-60 cells were treated with 3 μM 2a or 2 μM 2b for 12 h in a 6-well plate. Each sample was collected and washed twice with PBS. Then the cells were incubated with moderate lysis buffer from the kit on ice. The cell extract was handled on the basis of manufacturer’s instructions (beyotime, Shanghai, China). After 3 h, the absorbance at 405 nm was measured using a microplate reader.
as §1

[14] = system: normal leukocyte; experiment: Effect on normal leukocyte (MTT viability and Annexin V-FITC/PI apoptosis); assay type: cell-based, human; settings: 3.5 μM 2a, 2.5 μM 2b or 15 μM As2O3 for 6 h, 12 h or 24 h
Method: Normal human fresh peripheral blood with EDTA anticoagulant was dealt with Red Blood Cell Lysis Buffer according to manufacturer’s instructions (Beyotime, Shanghai, China) to obtain the normal leukocyte. […] Then, the apoptosis rate using Annexin V-FITC/PI staining and cell viability using MTT method were tested respectively. There are 8 independent normal human fresh peripheral blood samples in all to be tested. This study was carried out in accordance with relevant guidelines and regulations of Wuhan University and the experiment protocol was approved by Zhongnan Hospital of Wuhan University. Additionally, the informed consent was obtained from all subjects.

[15] = Homo sapiens, HL-60, 24 h, read-out: IC50 HL-60
[16] = Homo sapiens, HEK293, read-out: IC50 HEK293
[17] = Mus musculus, NIH3T3, read-out: IC50 NIH3T3
[18] = 3 μM 2a or 2 μM 2b alone, 24 h (Fig. 2a, Fig. 6c)
[19] = 3 μM 2a or 2 μM 2b alone, 24 h, LA experiment (Fig. 6d)
[20] = 3 μM 2a or 2 μM 2b with 0.075 mM LA pre-incubating, 24 h
[21] = 3 μM 2a or 2 μM 2b with 2 mM NAC, 24 h
[22] = 3 μM 2a or 2 μM 2b, 24 h (Fig. 2a)
[23] = 3 μM 2a or 2 μM 2b after pre-adding 0.075 mM LA
[24] = 3 μM 2a or 2 μM 2b, 24 h (Fig. 5b), control 30.8%
[25] = 3 μM 2a or 2 μM 2b alone, 24 h, 12 h (method)
[26] = 3 μM 2a or 2 μM 2b with 0.075 mM LA

Compound | IC50 [1, 15] | IC50 ([2]; Homo sapiens, MCF7, 24 h) | IC50 ([3]; Homo sapiens, SGC-7901, 24 h) | IC50 ([4]; Homo sapiens, GES1, 24 h) | concentration that could kill the majority of HL-60 cells [1] | IC50 [5, 16] | IC50 [6, 17] | apoptosis rate (FITC+/PI− and FITC+/PI+) ([7]; 1.5 μM 2a or 1 μM 2b, 24 h) | Q1-LL live (normal) cells [7, 18] | apoptosis rate [7, 19] | apoptosis rate [7, 20] | Q1-LL live (normal) cells [7, 21] | apoptosis rate (FITC+/PI− and FITC+/PI+) [7, 22] | morphology changes (Hoechst 33342 fluorescence) [8] | relative fluorescence intensity of DCF (ROS) versus control [9] | ROS level with antioxidant ([9]; 0.075 mM LA pre-incubated 4 h) | ROS level with antioxidant ([9]; 1 mM DTT pre-incubated 4 h) | ROS level with antioxidant ([9]; 1 mM VC pre-incubated 4 h) | ROS level with antioxidant ([9]; 2 mM NAC pre-incubated 4 h) | ROS level with antioxidant ([9]; pretreated with GSH) | further results
Oc1ccccc1C=Nc1ccccc1 [Compound 1a, 2-((phenylimino)methyl) phenol, reference compound] | > 100 µM | > 100 µM | > 100 µM | > 100 µM | – | – | – | – | – | – | – | – | – | – | – | – | – | – | – | – | –
O=[As]c1ccc(N=Cc2ccccc2O)cc1 (centres unmarked) [Compound 2a, 2-(((4-(oxoarsanyl)phenyl)imino)methyl)phenol] | 0.77 ± 0.1 µM | 2.53 ± 0.41 µM | 4.03 ± 0.89 µM | 5.96 ± 1.23 µM | less than 1 μM | 4.36 ± 0.62 µM | 7.43 ± 0.37 µM | 9.3% | 44.3% | 55.7% | 11.4% | 86.6% | 55.5% | cell nuclear shrinkage and DNA incision | doubled approximately | scavenging ROS completely | scavenge additional ROS completely | decrease the level of ROS to that of control | scavenge additional ROS completely | began to decrease by a concentration-dependent way | content of intracellular total GSH ([10]; 24 h): decreased significantly; content of intracellular total GSH ([10]; pretreatment with 0.075 mM LA): could recover the content; ratio of GSH/GSSG [10]: showed the similar variation trend; intensity of Rh123 (mitochondrial membrane potential) ([11]; 3 μM 2a or 2 μM 2b): drop obviously; intensity of Rh123 (mitochondrial membrane potential) [11, 23]: recovered to some extent; proportion of mitochondrial membrane potential collapse (P2, JC-1) [11, 24]: 68.3%; relative content of cytochrome c versus control [12]: approximately six times; activity of Caspase-3 [13, 25]: enhanced; activity of Caspase-3 [13, 26]: could be deterred by 0.075 mM LA; influence on normal leukocyte (cell viability, apoptosis) versus control [14]: no more influence on normal leukocyte than control
COc1cc(C=Nc2ccc([As]=O)cc2)ccc1O (centres unmarked) [Compound 2b, 2-methoxy-4-(((4-(oxoarsanyl)phenyl)imino)methyl)phenol] | 0.51 ± 0.1 µM | 2.81 ± 1.34 µM | 2.12 ± 0.48 µM | 1.57 ± 0.26 µM | less than 1 μM | 2.29 ± 0.34 µM | 2.72 ± 0.64 µM | 10.7% | 34.4% | 86.1% | 11.7% | 92.1% | 65.3% | cell nuclear shrinkage and DNA incision | doubled approximately | scavenging ROS completely | eliminate the majority of ROS | eliminate the majority of ROS | removed completely | began to decrease by a concentration-dependent way | content of intracellular total GSH ([10]; 24 h): decreased significantly; content of intracellular total GSH ([10]; pretreatment with 0.075 mM LA): could recover the content; ratio of GSH/GSSG [10]: showed the similar variation trend; intensity of Rh123 (mitochondrial membrane potential) ([11]; 3 μM 2a or 2 μM 2b): drop obviously; intensity of Rh123 (mitochondrial membrane potential) [11, 23]: recovered to some extent; proportion of mitochondrial membrane potential collapse (P2, JC-1) ([11]; 3 μM 2a or 2 μM 2b with 0.075 mM LA pre-incubation (Fig. 5b)): ~12%; proportion of mitochondrial membrane potential collapse (P2, JC-1) [11, 24]: 78.5%; relative content of cytochrome c versus control [12]: five times; activity of Caspase-3 [13, 25]: enhanced; activity of Caspase-3 [13, 26]: could be deterred by 0.075 mM LA; influence on normal leukocyte (cell viability, apoptosis) versus control [14]: no more influence on normal leukocyte than control
O=[As]c1ccc(N=Cc2c3ccccc3cc3ccccc23)cc1 (centres unmarked) [Compound 4a, 1-(anthracen-9-yl)-N-(4-(oxoarsanyl)phenyl) methanimine] | 15.9 ± 0.56 µM | 11.3 ± 3.4 µM | 7.63 ± 3.02 µM | 8.72 ± 3.76 µM | – | – | – | – | – | – | – | – | – | – | – | – | – | – | – | – | IC50 ([1]; Homo sapiens, HL-60, read-out: half inhibitory concentration (IC50) for HL-60 cells): > 10 µM; melting point: 91 to 92 °C
O=[As]O [NaAsO2, reference compound] | – | – | – | – | – | – | – | – | – | – | – | – | – | – | – | – | – | – | – | – | IC50 ([1]; read-out: IC50 HL-60): 10.6 ± 3.06 µM; IC50 [2]: 31.7 ± 0.67 µM; IC50 [3]: 59 ± 11.8 µM; IC50 [4]: 42.6 ± 11.6 µM; IC50 ([5]; read-out: IC50 HEK293): 14.6 ± 0.61 µM; IC50 ([6]; read-out: IC50 NIH3T3): 10.8 ± 1.66 µM

— PMC4949440 (Scientific Reports, 2016)
